Biological target: unphosphorylated-BTK kinase domain (UP-BTK), GST-tagged human BTK (389-659aa) (Homo sapiens (Human), UniProt Q06187)
Assay: BTK kinase Lanthascreen binding assay
Conditions: 60 minutes incubation, pIC50 = negative log of the IC50 in molar
How it was run: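 Compound binding to the unphosphorylated kinase domain was monitored by displacement of a fluorescently labelled tracer in a Lanthascreen format. Potency is given as pIC50, the negative log of the molar IC50.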

[1] = Lanthascreen tracer competition
[2] = unphosphorylated-BTK kinase domain, 50 nM Tracer 236

Chain of unphosphorylated-BTK kinase domain (UP-BTK), GST-tagged human BTK (389-659aa) (Q06187 389-659): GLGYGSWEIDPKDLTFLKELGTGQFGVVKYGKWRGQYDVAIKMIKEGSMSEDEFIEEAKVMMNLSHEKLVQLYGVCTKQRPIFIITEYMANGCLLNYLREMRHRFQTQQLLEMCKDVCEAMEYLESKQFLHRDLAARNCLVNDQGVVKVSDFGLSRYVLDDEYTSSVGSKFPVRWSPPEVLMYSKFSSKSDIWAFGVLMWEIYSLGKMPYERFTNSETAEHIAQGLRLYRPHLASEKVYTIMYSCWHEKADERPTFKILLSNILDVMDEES

Structure (SMILES)	BTK_I_binding pIC50 [1]	BTK_I_binding pIC50 [2]
COc1ccccc1Oc1ccc(N2C(=O)Nc3c(C(=O)NC4CCCN(C(=O)/C(C#N)=C/C(C)(C)C)C4)sc4nccc2c34)c(C)c1 (stereo not shown) [Example 896, (E)-N-(1-(2-Cyano-4,4-dimethylpent-2-enoyl)piperidin-3-yl)-5-(4-(2-methoxyphenoxy)-2-methylphenyl)-4-oxo-4,5-dihydro-3H-1-thia-3,5,8-triazaacenaphthylene-2-carboxamide]	6.9	–
Cc1cc(Oc2ccccc2)ccc1N1C(=O)Nc2c(C(=O)NC3CCCN(C(=O)/C(C#N)=C/C(C)(C)C)C3)sc3nccc1c23 (stereo not shown) [Example 897, (E)-N-(1-(2-Cyano-4,4-dimethylpent-2-enoyl)piperidin-3-yl)-5-(2-methyl-4-phenoxyphenyl)-4-oxo-4,5-dihydro-3H-1-thia-3,5,8-triazaacenaphthylene-2-carboxamide]	6.8	–
Cc1cc(Oc2ccccc2)ccc1N1C(=O)Nc2c(C(=O)NC3CCCN(C)C3)sc3nccc1c23 (stereo not shown) [Example 898, 5-(2-Methyl-4-phenoxyphenyl)-N-(1-methylpiperidin-3-yl)-4-oxo-4,5-dihydro-3H-1-thia-3,5,8-triazaacenaphthylene-2-carboxamide]	6.8	–
Cc1cc(Oc2ccccc2)ccc1N1C(=O)Nc2c(C(=O)N[C@H]3CCCN(C(=O)/C(C#N)=C/C4CC4)C3)sc3nccc1c23 [Example 899, (S,E)-N-(1-(2-Cyano-3-cyclopropylacryloyl)piperidin-3-yl)-5-(2-methyl-4-phenoxyphenyl)-4-oxo-4,5-dihydro-3H-1-thia-3,5,8-triazaacenaphthylene-2-carboxamide]	6.8	–
Cc1cc(Oc2ccccc2)ccc1N1C(=O)Nc2c(C(=O)N[C@@H]3CCCN(C(=O)/C=C/CN4CCCCC4)C3)sc3nccc1c23 [Example 900, (R,E)-5-(2-Methyl-4-phenoxyphenyl)-4-oxo-N-(1-(4-(piperidin-1-yl)but-2-enoyl)piperidin-3-yl)-4,5-dihydro-3H-1-thia-3,5,8-triazaacenaphthylene-2-carboxamide]	6.8	–
Cc1c(Oc2ccccc2)cccc1N1C(=O)Nc2c(C(=O)N[C@@H]3CCCN(C(=O)/C(C#N)=C/C4CC4)C3)sc3nccc1c23 [Example 901, (R,E)-N-(1-(2-Cyano-3-cyclopropylacryloyl)piperidin-3-yl)-5-(2-methyl-3-phenoxyphenyl)-4-oxo-4,5-dihydro-3H-1-thia-3,5,8-triazaacenaphthylene-2-carboxamide]	6.8	–

Continued, values first:

BTK_I_binding pIC50 [1]	BTK_I_binding pIC50 [2]	Structure (SMILES)
–	6.8	N#C/C(=C\C1CC1)C(=O)N1CCC[C@H](NC(=O)c2sc3nccc4c3c2NC(=O)N4c2ccc(C(=O)Nc3cc(C(F)(F)F)ccn3)cc2F)C1 [Example 902, (S,E)-N-(1-(2-Cyano-3-cyclopropylacryloyl)piperidin-3-yl)-5-(2-fluoro-4-((4-(trifluoromethyl)pyridin-2-yl)carbamoyl)phenyl)-4-oxo-4,5-dihydro-3H-1-thia-3,5,8-triazaacenaphthylene-2-carboxamide]
–	6.8	CCC(=O)N1CCCC(NC(=O)c2sc3nccc4c3c2NC(=O)N4c2ccc(Oc3ccccc3)cc2C)C1 (stereo not shown) [Example 903, 5-(2-Methyl-4-phenoxyphenyl)-4-oxo-N-(1-propionylpiperidin-3-yl)-4,5-dihydro-3H-1-thia-3,5,8-triazaacenaphthylene-2-carboxamide]
–	6.7	Cc1cc(Oc2ccccc2)ccc1N1C(=O)Nc2c(C(=O)N[C@H]3CCCN(C(=O)/C(C#N)=C/C(C)(C)C)C3)sc3nccc1c23 [Example 904, (S,E)-N-(1-(2-Cyano-4,4-dimethylpent-2-enoyl)piperidin-3-yl)-5-(2-methyl-4-phenoxyphenyl)-4-oxo-4,5-dihydro-3H-1-thia-3,5,8-triazaacenaphthylene-2-carboxamide]
–	6.7	Cc1cc(Oc2ccccc2)ccc1N1C(=O)Nc2c(C(=O)N[C@H]3CCN(C(=O)/C(C#N)=C/C4CC4)C3)sc3nccc1c23 [Example 905, (S,E)-N-(1-(2-Cyano-3-cyclopropylacryloyl)pyrrolidin-3-yl)-5-(2-methyl-4-phenoxyphenyl)-4-oxo-4,5-dihydro-3H-1-thia-3,5,8-triazaacenaphthylene-2-carboxamide]
